Measurements published in US10760110B2, “Antibiotic testing and screening system” (priority 2017, dated 2020).
Converted amounts (≈) assume the structure as drawn. Read-outs that look alike come from different tables or passages of the source.

Experiments:
Settings in all cases: Klebsiella pneumoniae
[1] = tested on: K. pneumoniae NVT1001 ΔramRΔompK35/36 mutant and its revertants; test: Etest MIC, ΔramRΔompK35/36 mutant and its revertants (Table 7); type: cell-based
[2] = tested on: K. pneumoniae NVT1001 and its ΔompK35/36 and/or ΔramR mutants; test: Etest MIC, OmpK35/36 loss and AcrAB-TolC overexpression (ΔramR) strains (Table 6); type: cell-based, Klebsiella pneumoniae
Summary of the method: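 Etest strips per kit instructions; off-scale intermediate readings rounded upward to the nearest two-fold concentration. Broth microdilution (CLSI) for ceftazidime, cefotaxime only. Breakpoints: CLSI 2017 generally, CLSI 2015 for cephalothin, EUCAST 2017 for moxifloxacin.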

[3] = tested on: K. pneumoniae NVT1001 strains with carbapenemase plasmids; test: Etest MIC of β-lactams, OmpK35/36 loss, ΔramR and/or carbapenemase (Table 9); type: cell-based, Klebsiella pneumoniae
Summary of the method: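 Etest MICs, with values between standard dilutions rounded up to the next two-fold step, were measured in K. pneumoniae NVT1001 carrying PCR-cloned resistance genes on pACYC177 or pACYC184 plasmids. Interpretation used CLSI 2017 breakpoints, CLSI 2015 for cephalothin and EUCAST 2017 for moxifloxacin. For the blaOXA-48 strain, ceftazidime and cefotaxime were additionally tested by CLSI broth microdilution.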

CO/N=C(\C(=O)N[C@@H]1C(=O)N2C(C(=O)O)=C(COC(C)=O)CS[C@H]12)c1csc(N)n1 [Cefotaxime]
MIC ([1]; ΔramRΔompK35/36::ompK35/36 revertant): 1 µg/mL | MIC ([1]; ΔramRΔompK35/36::ompK35 revertant): 4 µg/mL | MIC ([1]; ΔramRΔompK35/36::ompK36 revertant): 1 µg/mL | MIC ([1]; ΔramRΔompK35/36::ramR revertant): 2 µg/mL | MIC ([1]; ΔramRΔompK35/36::ramR::ompK35/36 revertant): 0.06 µg/mL | MIC ([1]; ΔramRΔompK35/36::ramR::ompK35 revertant): 0.25 µg/mL | MIC ([1]; ΔramRΔompK35/36::ramR::ompK36 revertant): 0.125 µg/mL | MIC ([1]; ΔramRΔompK35/36 mutant): 4 µg/mL | MIC ([2]; WT, NVT1001, read-out: MIC): 0.06 µg/mL (≈ 0.132 µM) | MIC ([2]; Δ35, ΔompK35 mutant): 0.125 µg/mL (≈ 0.274 µM) | MIC ([2]; Δ35/36, ΔompK35/36 mutant): 2 µg/mL (≈ 4.39 µM) | MIC ([2]; Δ36, ΔompK36 mutant): 0.25 µg/mL (≈ 0.549 µM) | MIC ([2]; ΔramR mutant): 1 µg/mL (≈ 2.2 µM) | MIC ([2]; ΔramRΔ35, ΔramRΔompK35 mutant): 1 µg/mL (≈ 2.2 µM) | MIC ([2]; ΔramRΔ35/36, ΔramRΔompK35/36 mutant): 4 µg/mL (≈ 8.78 µM) | MIC ([2]; ΔramRΔ36, ΔramRΔompK36 mutant): 4 µg/mL (≈ 8.78 µM) | MIC ([3]; IMP-8 on pACYC177, WT (NVT1001), read-out: MIC): 64 µg/mL | MIC ([3]; IMP-8 on pACYC177, Δ35 (ΔompK35 mutant)): 128 µg/mL | MIC ([3]; IMP-8 on pACYC177, Δ35/36 (ΔompK35/36 mutant)): > 256 µg/mL | MIC ([3]; IMP-8 on pACYC177, Δ36 (ΔompK36 mutant)): 256 µg/mL | MIC ([3]; IMP-8 on pACYC177, ΔramR mutant): 128 µg/mL | MIC ([3]; IMP-8 on pACYC177, ΔramRΔ35 (ΔramRΔompK35 mutant)): 128 µg/mL | MIC ([3]; IMP-8 on pACYC177, ΔramRΔ35/36 (ΔramRΔompK35/36 mutant)): 256 µg/mL | MIC ([3]; IMP-8 on pACYC177, ΔramRΔ36 (ΔramRΔompK36 mutant)): 256 µg/mL | MIC ([3]; KPC-2 on pACYC177, WT (NVT1001), read-out: MIC): 128 µg/mL | MIC ([3]; KPC-2 on pACYC177, Δ35 (ΔompK35 mutant)): 256 µg/mL | MIC ([3]; KPC-2 on pACYC177, Δ35/36 (ΔompK35/36 mutant)): > 256 µg/mL | MIC ([3]; KPC-2 on pACYC177, Δ36 (ΔompK36 mutant)): 256 µg/mL | MIC ([3]; KPC-2 on pACYC177, ΔramR mutant): 256 µg/mL | MIC ([3]; KPC-2 on pACYC177, ΔramRΔ35 (ΔramRΔompK35 mutant)): 256 µg/mL | MIC ([3]; KPC-2 on pACYC177, ΔramRΔ35/36 (ΔramRΔompK35/36 mutant)): > 256 µg/mL | MIC ([3]; KPC-2 on pACYC177, ΔramRΔ36 (ΔramRΔompK36 mutant)): > 256 µg/mL | MIC ([3]; KPC-3 on pACYC177, WT (NVT1001), read-out: MIC): 128 µg/mL | MIC ([3]; KPC-3 on pACYC177, Δ35 (ΔompK35 mutant)): 256 µg/mL | MIC ([3]; KPC-3 on pACYC177, Δ35/36 (ΔompK35/36 mutant)): > 256 µg/mL | MIC ([3]; KPC-3 on pACYC177, Δ36 (ΔompK36 mutant)): 256 µg/mL | MIC ([3]; KPC-3 on pACYC177, ΔramR mutant): 256 µg/mL | MIC ([3]; KPC-3 on pACYC177, ΔramRΔ35 (ΔramRΔompK35 mutant)): 256 µg/mL | MIC ([3]; KPC-3 on pACYC177, ΔramRΔ35/36 (ΔramRΔompK35/36 mutant)): > 256 µg/mL | MIC ([3]; KPC-3 on pACYC177, ΔramRΔ36 (ΔramRΔompK36 mutant)): > 256 µg/mL | MIC ([3]; NDM-1 on pACYC177, WT (NVT1001), read-out: MIC): 256 µg/mL | MIC ([3]; NDM-1 on pACYC177, Δ35 (ΔompK35 mutant)): 256 µg/mL | MIC ([3]; NDM-1 on pACYC177, Δ35/36 (ΔompK35/36 mutant)): > 256 µg/mL | MIC ([3]; NDM-1 on pACYC177, Δ36 (ΔompK36 mutant)): > 256 µg/mL | MIC ([3]; NDM-1 on pACYC177, ΔramR mutant): > 256 µg/mL | MIC ([3]; NDM-1 on pACYC177, ΔramRΔ35 (ΔramRΔompK35 mutant)): > 256 µg/mL | MIC ([3]; NDM-1 on pACYC177, ΔramRΔ35/36 (ΔramRΔompK35/36 mutant)): > 256 µg/mL | MIC ([3]; NDM-1 on pACYC177, ΔramRΔ36 (ΔramRΔompK36 mutant)): > 256 µg/mL | MIC ([3]; OXA-48 on pACYC177, WT (NVT1001), read-out: MIC): 2 µg/mL | MIC ([3]; OXA-48 on pACYC177, Δ35 (ΔompK35 mutant)): 4 µg/mL | MIC ([3]; OXA-48 on pACYC177, Δ35/36 (ΔompK35/36 mutant)): 32 µg/mL | MIC ([3]; OXA-48 on pACYC177, Δ36 (ΔompK36 mutant)): 16 µg/mL | MIC ([3]; OXA-48 on pACYC177, ΔramR mutant): 4 µg/mL | MIC ([3]; OXA-48 on pACYC177, ΔramRΔ35 (ΔramRΔompK35 mutant)): 4 µg/mL | MIC ([3]; OXA-48 on pACYC177, ΔramRΔ35/36 (ΔramRΔompK35/36 mutant)): 32 µg/mL | MIC ([3]; OXA-48 on pACYC177, ΔramRΔ36 (ΔramRΔompK36 mutant)): 32 µg/mL | MIC ([3]; VIM-1 on pACYC177, WT (NVT1001), read-out: MIC): > 256 µg/mL | MIC ([3]; VIM-1 on pACYC177, Δ35 (ΔompK35 mutant)): > 256 µg/mL | MIC ([3]; VIM-1 on pACYC177, Δ35/36 (ΔompK35/36 mutant)): > 256 µg/mL | MIC ([3]; VIM-1 on pACYC177, Δ36 (ΔompK36 mutant)): > 256 µg/mL | MIC ([3]; VIM-1 on pACYC177, ΔramR mutant): > 256 µg/mL | MIC ([3]; VIM-1 on pACYC177, ΔramRΔ35 (ΔramRΔompK35 mutant)): > 256 µg/mL | MIC ([3]; VIM-1 on pACYC177, ΔramRΔ35/36 (ΔramRΔompK35/36 mutant)): > 256 µg/mL | MIC ([3]; VIM-1 on pACYC177, ΔramRΔ36 (ΔramRΔompK36 mutant)): > 256 µg/mL | MIC ([3]; no supplemental plasmid, WT (NVT1001), read-out: MIC): 0.06 µg/mL | MIC ([3]; no supplemental plasmid, Δ35 (ΔompK35 mutant)): 0.125 µg/mL | MIC ([3]; no supplemental plasmid, Δ35/36 (ΔompK35/36 mutant)): 2 µg/mL | MIC ([3]; no supplemental plasmid, Δ36 (ΔompK36 mutant)): 0.25 µg/mL | MIC ([3]; no supplemental plasmid, ΔramR mutant): 1 µg/mL | MIC ([3]; no supplemental plasmid, ΔramRΔ35 (ΔramRΔompK35 mutant)): 1 µg/mL | MIC ([3]; no supplemental plasmid, ΔramRΔ35/36 (ΔramRΔompK35/36 mutant)): 4 µg/mL | MIC ([3]; no supplemental plasmid, ΔramRΔ36 (ΔramRΔompK36 mutant)): 4 µg/mL
